In patent publication US20240393694A1, “METAL CONTAINING PHOTORESIST DEVELOPER COMPOSITION, AND METHOD OF FORMING PATTERNS INCLUDING STEP OF DEVELOPING USING THE COMPOSITION” (SAMSUNG SDI CO., LTD., priority 2023, published 2024) one finds pKa data, which are given here for two compounds.

This series is described as follows: pKa of the sulfonimide-based compound (Table 1).

In general, pKa refers to the pH at which an ionisable group is half protonated. A lower pKa goes with a stronger acid or weaker base.

Structures are written as SMILES.

Compound `O=C1NC(=O)c2ccccc21` [Phthalimide] came in with a pKa of 8.3.

`O=C1CCC(=O)N1` [Succimide] came in with a pKa of 9.5.
